Measurements from US11677091B2, “Use of quaternary ammonium salt-type anthraquinone-based active material and salt cavern organic aqueous redox flow battery” (CHINA SALT JINTAN CO., LTD., priority 2020, dated 2023).

Assay: Electrochemical characterization of the active material (rotating disk electrode, diffusion coefficient, charge transfer rate constant)
Assay type: physicochemical
Conditions: on a graphite felt electrode
Text: FIG. 2 to FIG. 9 show the characterization of electrochemical performances of the prepared active material.

- charge transfer rate constant: 0.00302 cm/s
- diffusion coefficient: 3.94×10^−6 cm^2/s
SMILES: C[N+](C)(C)CCCOc1cccc2c1C(=O)c1c(OCCC[N+](C)(C)C)cccc1C2=O [Embodiment 1]
